Results from PMC7665192, “A natriuretic peptide from Arabidopsis thaliana (AtPNP-A) can modulate catalase 2 activity” (Scientific Reports, 2020).
Positions of bridges follow the written chain, without caps; N, C: chain ends. Residues, ends and D or L forms follow the SMILES beside them. *: point of attachment. Biotin = O=C1N[C@H]2[C@H](CS[C@H]2CCCCC(=O)*)N1

What was measured:
bovine liver CAT = biological target: T1, bovine liver CAT (Bos taurus, UniProt P00432); experiment: SPR kinetic analysis, bovine liver CAT immobilized on CM5 chip; type: binding
T1 construct: bovine liver CAT (C-40; Sigma); purchased Sigma C-40; host or cells: bovine liver (tissue-derived enzyme)
T1 sequence (P00432 2-527 limits assumed): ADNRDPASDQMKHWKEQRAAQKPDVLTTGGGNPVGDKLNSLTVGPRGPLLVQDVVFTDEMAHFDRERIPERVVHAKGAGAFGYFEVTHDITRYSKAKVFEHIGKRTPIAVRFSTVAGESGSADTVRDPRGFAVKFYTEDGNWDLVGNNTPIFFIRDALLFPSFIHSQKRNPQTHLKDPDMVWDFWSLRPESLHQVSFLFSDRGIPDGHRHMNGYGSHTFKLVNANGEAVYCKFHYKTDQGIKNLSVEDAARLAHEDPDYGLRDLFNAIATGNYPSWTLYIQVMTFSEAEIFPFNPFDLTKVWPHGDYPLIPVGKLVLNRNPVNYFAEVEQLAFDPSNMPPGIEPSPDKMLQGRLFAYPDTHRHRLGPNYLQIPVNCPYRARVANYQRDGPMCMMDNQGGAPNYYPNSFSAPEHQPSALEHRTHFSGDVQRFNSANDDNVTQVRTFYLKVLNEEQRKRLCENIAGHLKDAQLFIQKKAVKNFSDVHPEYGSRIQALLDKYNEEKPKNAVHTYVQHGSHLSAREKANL
Method: SPR experiments were performed at 20 °C on Biacore T100 instrument operated using Biacore T100 control software (version 2.0.2, GE Healthcare Lifesciences) using Series S CM5 or NTA sensor chips as described in[21]. Kinetic analyses were performed at the flow of 100 μL min^−1 with pAtPNP-A (at 3.78 μM and consecutive twofold dilutions; 11 injections included) employed as a ligand and bovine liver CAT (C-40; Sigma) used as an analyte and immobilized on the active surface of the Series S CM5 sensor chip with amine coupling kit, while the surface regeneration was done with solution of glycine, pH 2.0, and the final sensorgram was generated with Scrubber (BioLogic Software Pty Ltd).

[1] = system: SPL8, squamosal promoter binding protein-like 8; experiment: Yeast two-hybrid (Y2H) screen; design: species or system A. thaliana; conditions: bait AtPNP-A amino acids 26–130, prey At1g02065.1
Method: (§1) The Y2H screen using AtPNP-A as bait was carried out by Dualsystems Biotech AG (Zurich, Switzerland). The bait construct for the screening was made by subcloning the cDNA fragment encoding exported portion of AtPNP-A (amino acids 26 to 130) (Fig. 1a) into the pLexA-DIR vector (Dualsystems Biotech AG). The bait construct was transformed into the strain NMY32 (MATa his3Δ200 trp1-901 leu2-3,112 (lexAop)8-ADE2 LYS2::(lexAop)4-HIS3 URA3::(lexAop)8-lacZ GAL4) using standard procedures. Correct expression of the bait was verified by western blotting of cell extracts using a mouse monoclonal antibody directed against the LexA domain (Dualsystems Biotech AG). The absence of self-activation was verified by co-transformation of the bait together with a control prey and selection on minimal medium lacking tryptophan, leucine, and histidine (selective medium). For the Y2H screen, the bait was co-transformed together with a normalized A. thaliana universal P02403 cDNA library (Dualsystems Biotech AG) into NMY32. 3.1 × 10^6 transformants were screened, yielding 96 transformants that grew on selective medium. […] Library plasmids were isolated from positive clones. The identity of positive interactants was determined by sequencing. DNA sequences translated in all three reading frames and searching against the SwissProt database using the BLASTX algorithm (https://blast.ncbi.nlm.nih.gov).

[2] = system: NAD(P)-binding Rossmann-fold superfamily protein; experiment: Yeast two-hybrid (Y2H) screen; design: species or system A. thaliana; conditions: bait AtPNP-A amino acids 26–130, prey At1g07440.1
Method: as §1

[3] = system: Calcium-binding EF-hand family protein; experiment: Yeast two-hybrid (Y2H) screen; design: species or system A. thaliana; conditions: bait AtPNP-A amino acids 26–130, prey At2g41410.1
Method: as §1

leaf discs of WT plants = experiment: Oxidative burst (ROS) in leaf discs; design: species or system Arabidopsis thaliana; conditions: leaf discs pre-treated with 100 nM rAtPNP-A for 30 min, then 1 μM flg22, luminol luminescence, 1 h, n = 11–12, P < 0.01
Method: Leaf discs (0.196 cm[2]) of 4-week-old WT plants were incubated overnight floating on 0.1 mL water in 96-well titer plate, with one disc per well. The following day the leaf discs were pre-treated with 100 nM rAtPNP-A or mock for 30 min. For ROS detection horseradish peroxidase and luminol (Sigma-Aldrich) were added to a final concentration of 10 μg mL^−1 and 100 μM, respectively. Luminescence was measured directly after addition of either 1 μM of flg22 or 100 nM rAtPNP-A in a MicroLumat LB96P plate reader (Berthold Technologies) for 1 h and is shown in relative light units.
Supplementary Figure S2. AtPNP-A participates in plant immunity.
Kinetics of ROS production after treatment of leaf discs with 1 μM flg22 with or without pre-treatment with 100 nM recombinant AtPNP-A (rAtPNP-A), or after treatment with rAtPNP-A only. Data are shown as mean ± SEM (two-way repeated measure ANOVA followed by Tukey’s multiple comparison test, n = 11 – 12, * P < 0.01). Total production of ROS during 60 min after treatment with rAtPNP-A, flg22, or flg22 and rAtPNP-A pre-treatment is shown as median ± SD (one-way ANOVA and Tukey-Kramer multiple comparison test, n = 11 – 12, P < 0.01) with statistically significant differences indicated by different letters.
(1 picture or pasted object on this page, not shown here)

Row | Molecule | Chi2, average squared residual (bovine liver CAT; SPR kinetic fit, 20 °C) [RU2] | U-value, uniqueness value for kinetic rate constants (bovine liver CAT; SPR kinetic fit, 20 °C) | Specificity of binding to bovine CAT (bovine liver CAT; SPR, both ligand-analyte configurations, amine coupling) | Strength of binding [1] | Strength of binding [2] | Strength of binding [3] | Effect on flg22-induced oxidative burst (leaf discs of WT plants) | Effect on flg22-induced oxidative burst (leaf discs of WT plants; listed as AtPNP) | Effect on flg22-induced oxidative burst (leaf discs of WT plants; listed as PNP)
1 | CC(C)C[C@@H]1NC(=O)[C@H](CC(N)=O)NC(=O)[C@H](CC(N)=O)NC(=O)[C@H](CCCCN)NC(=O)[C@H](C(C)C)NC(=O)CNC(=O)[C@H](C(C)C)NC(=O)[C@H](C(C)C)NC(=O)[C@H](CC(C)C)NC(=O)[C@H]([C@@H](C)O)NC(=O)[C@H](CCC(=O)O)NC(=O)[C@H](CCCNC(=N)N)NC(=O)[C@H](CCC(N)=O)NC(=O)[C@H]([C@@H](C)O)NC(=O)CNC(=O)[C@H](Cc2ccc(O)cc2)NC(=O)[C@@H](NC(=O)[C@H](C)NC(=O)[C@H](CO)NC(=O)[C@H](CCCNC(=N)N)NC(=O)[C@@H](NC(=O)[C@H](Cc2ccc(O)cc2)NC(=O)[C@@H]2CCCN2)[C@@H](C)O)CSSC[C@@H](C(=O)NCC(=O)N[C@@H](CCCNC(=N)N)C(=O)N[C@@H](CCCNC(=N)N)C(=O)N[C@@H](Cc2ccc(O)cc2)C(=O)N[C@@H](CCCNC(=N)N)C(=O)N[C@H](C(=O)N[C@@H](CCCNC(=N)N)C(=O)N[C@@H](CCCCNC(=O)CCCC[C@@H]2SC[C@@H]3NC(=O)N[C@@H]32)C(=O)O)C(C)C)NC(=O)[C@H](C)NC(=O)[C@H](CCCNC(=N)N)NC(=O)CNC(=O)[C@H](CC(N)=O)NC(=O)[C@H](CCC(N)=O)NC(=O)[C@H](Cc2c[nH]c3ccccc23)NC1=O [pAtPNP-A] (H-PYTRSACYGTQRETLVVGVKNNLWQNGRACGRRYRVRK(Biotin)-OH; disulfide 7-30; N-terminus and C-terminus assumed) | 10.4 | 2 | points to a specific interaction | – | – | – | – | – | –
2 | AtPNP-A: An A. thaliana PNP, termed AtPNP-A (At2g18660; Q9ZV52) | – | – | – | Weak | Moderate | Weak | enhanced flg22-induced oxidative burst | enhances responses to flg22 | enhances oxidative burst
